Legend:
ADRB2 = ADRB2 (Homo sapiens, UniProt P07550); test: PathHunter β-arrestin assay, antagonist mode; format: cell-based
Protocol: (§5) The assay was performed by DiscoverX Corporation (Fremont, CA) using PathHunter β -arrestin enzyme fragment complementation (EFC) technology, in a similar way to that described elsewhere [35, 36]. The PathHunter cell lines were taken from freezer stocks according to standard procedures. A total of 20 µL of cells were seeded into white 384-well plates and incubated at 37 °C for the appropriate time prior to testing.
(§6) In this assay format, the standard agonist was added at an EC80 concentration. To the plate that contained the cells, 5 µL of the 5X sample was added and incubated for 30 min at 37 °C or room temperature. After the incubation period, 5 µL of the 6X EC80 agonist in an assay buffer was added to the cells and incubated for additional 90 or 180 min at 37 °C or room temperature.

DRD4 = target: T1, DRD4 (Homo sapiens, UniProt P21917); test: PathHunter β-arrestin assay, antagonist mode; format: cell-based
T1 sequence (P21917 1-419): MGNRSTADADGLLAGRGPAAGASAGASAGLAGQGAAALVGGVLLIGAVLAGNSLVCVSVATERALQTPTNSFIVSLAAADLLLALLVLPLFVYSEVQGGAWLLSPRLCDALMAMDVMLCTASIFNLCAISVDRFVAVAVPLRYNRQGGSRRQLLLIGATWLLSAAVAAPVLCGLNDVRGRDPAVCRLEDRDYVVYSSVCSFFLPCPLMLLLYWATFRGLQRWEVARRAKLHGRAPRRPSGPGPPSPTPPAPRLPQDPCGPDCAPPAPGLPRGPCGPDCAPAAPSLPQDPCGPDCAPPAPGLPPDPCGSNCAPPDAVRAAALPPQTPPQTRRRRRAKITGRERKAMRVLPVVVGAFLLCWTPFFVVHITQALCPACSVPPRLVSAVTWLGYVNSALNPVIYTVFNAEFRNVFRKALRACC
Protocol: as §5, §6

CCR1 = target: T2, CCR1 (Homo sapiens, UniProt P32246); test: PathHunter β-arrestin assay, agonist mode; format: cell-based
T2 sequence (P32246 1-355): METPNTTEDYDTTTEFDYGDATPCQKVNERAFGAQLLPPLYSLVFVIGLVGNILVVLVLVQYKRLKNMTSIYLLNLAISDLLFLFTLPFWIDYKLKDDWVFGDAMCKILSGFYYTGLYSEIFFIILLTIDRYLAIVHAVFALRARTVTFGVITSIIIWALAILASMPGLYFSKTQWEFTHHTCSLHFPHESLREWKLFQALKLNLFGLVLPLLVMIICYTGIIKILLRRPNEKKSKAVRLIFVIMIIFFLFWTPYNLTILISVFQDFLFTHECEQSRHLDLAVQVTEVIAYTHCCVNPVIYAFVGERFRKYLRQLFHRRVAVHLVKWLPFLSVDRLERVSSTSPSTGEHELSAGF
Protocol: (§1) Aaptamine (20 µM) was profiled in gpcrMAX panel biosensor assays (in agonist and antagonist modes) against a panel of 168 GPCRs. The assay was performed by DiscoverX Corporation (Fremont, CA) using PathHunter β -arrestin enzyme fragment complementation (EFC) technology, in a similar way to that described elsewhere. The PathHunter cell lines were taken from freezer stocks according to standard procedures. A total of 20 µL of cells were seeded into white 384-well plates and incubated at 37 °C for the appropriate time prior to testing.
(§2) For agonist determination, aaptamine was incubated with PathHunter cell lines to induce a response. To increase the concentration, intermediate dilution from 20 µM of aaptamine was performed to generate a 5X sample in an assay buffer. Then, 5 µL of 5X sample was added to the plate with PathHunter cells and incubated for 90 or 180 min at 37 °C or room temperature. The percentage activity of aaptamine was calculated following this formula: % activity = 100% × (mean RLU of test sample − mean RLU of vehicle control)/(mean MAX control ligand − mean RLU of vehicle control).
(§3) Hit validation was performed by subjecting the aaptamine to an agonist, antagonist, and positive allosteric modulation (PAM) secondary screen utilizing thirteen GPCR biosensor assays (Arrestin) against the following targets: ADRA2A, ADRA2C, ADRB2, CCR1, CCR3, CXCR3, CXCR7, DRD2L, DRD2S, DRD4, HTR1E, OPRK1, and SSTR1. The assays were performed at 10-point concentrations using three-fold serial dilutions in duplicate. For all the assay formats, the final assay vehicle concentration was 1%.

CCR3 = target: T3, CCR3 (Homo sapiens, UniProt P51677); test: PathHunter β-arrestin assay, positive allosteric modulation (PAM) mode; format: cell-based; details: control agonist at EC20
T3 sequence (P51677 1-355): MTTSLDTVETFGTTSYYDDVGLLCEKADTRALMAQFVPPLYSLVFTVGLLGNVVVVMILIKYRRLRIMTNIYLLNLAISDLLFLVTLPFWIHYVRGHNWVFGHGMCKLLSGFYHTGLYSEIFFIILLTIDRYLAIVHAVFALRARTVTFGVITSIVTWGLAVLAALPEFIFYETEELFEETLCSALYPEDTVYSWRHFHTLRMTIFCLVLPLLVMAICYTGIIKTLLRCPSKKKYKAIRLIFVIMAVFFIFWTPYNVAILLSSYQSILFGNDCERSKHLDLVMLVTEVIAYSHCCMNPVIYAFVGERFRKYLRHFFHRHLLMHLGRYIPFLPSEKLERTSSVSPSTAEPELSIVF
Protocol: as §3
(§4) For PAM assays, the cells were preincubated with the sample followed by agonist induction at the EC20 concentration. To the cells, 5 µL of 5X sample was added and incubated for 30 min at 37 °C or room temperature. Following the incubation period, 5 µL of the 6X EC20 agonist prepared in an assay buffer was added to the cells and incubated for 90 or 180 min at 37 °C or room temperature. The percent activity of aaptamine was calculated following this formula: % modulation = 100% × ((mean RLU of test sample − mean RLU of EC20 control)/(mean RLU of MAX control ligand − mean RLU of EC20 control)).

CXCR3 = target: T4, CXCR3 (Homo sapiens, UniProt P49682); test: as above; format: cell-based; details: control agonist at EC20
T4 sequence (P49682 1-368): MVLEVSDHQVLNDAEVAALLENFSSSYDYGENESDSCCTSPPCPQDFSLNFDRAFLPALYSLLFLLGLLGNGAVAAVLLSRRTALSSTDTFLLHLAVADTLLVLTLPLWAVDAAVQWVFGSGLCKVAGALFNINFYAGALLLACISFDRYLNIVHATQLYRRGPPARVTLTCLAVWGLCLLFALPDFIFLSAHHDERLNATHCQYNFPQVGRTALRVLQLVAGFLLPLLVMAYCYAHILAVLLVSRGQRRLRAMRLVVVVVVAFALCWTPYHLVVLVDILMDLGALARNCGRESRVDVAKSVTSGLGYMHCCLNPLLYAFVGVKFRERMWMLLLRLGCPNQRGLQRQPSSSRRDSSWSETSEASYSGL
Protocol: as §3, §4

[1] = target: opioid receptor delta 1 (OPRD1) (Homo sapiens, UniProt P41143); test: PathHunter β-arrestin assay, agonist mode; format: cell-based; details: 20 µM primary screen
Protocol: as §1, §2

proteasome = system: proteasome; design: method as in PMID 20451377; details: read-out: proteasome inhibitory activity IC50; cited from earlier work
α-adrenoreceptor = system: α-adrenoreceptor; design: method as in PMID 6150989; details: vascular smooth muscle of male albino rabbits, displacement analysis; cited from earlier work
[2] = dose-response analysis, read-out: Dose-Response Maximal Response, % Inhibition
[3] = PAM mode, read-out: Dose-Response Maximal Response, % Activation
[4] = dose-response, read-out: EC50 (PAM)

Sequence of ADRB2 (P07550 whole entry): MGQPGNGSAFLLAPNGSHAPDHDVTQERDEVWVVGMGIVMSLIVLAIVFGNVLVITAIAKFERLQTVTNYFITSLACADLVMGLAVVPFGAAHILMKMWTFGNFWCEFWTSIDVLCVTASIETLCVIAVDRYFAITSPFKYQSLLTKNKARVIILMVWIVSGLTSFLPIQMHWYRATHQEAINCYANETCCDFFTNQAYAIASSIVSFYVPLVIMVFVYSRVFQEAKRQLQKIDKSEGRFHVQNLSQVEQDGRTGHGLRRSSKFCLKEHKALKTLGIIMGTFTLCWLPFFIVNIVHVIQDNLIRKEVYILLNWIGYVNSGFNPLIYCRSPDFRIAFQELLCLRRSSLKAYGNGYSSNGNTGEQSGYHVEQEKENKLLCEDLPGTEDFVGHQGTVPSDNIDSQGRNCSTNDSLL
Sequence of opioid receptor delta 1 (OPRD1) (P41143 whole entry): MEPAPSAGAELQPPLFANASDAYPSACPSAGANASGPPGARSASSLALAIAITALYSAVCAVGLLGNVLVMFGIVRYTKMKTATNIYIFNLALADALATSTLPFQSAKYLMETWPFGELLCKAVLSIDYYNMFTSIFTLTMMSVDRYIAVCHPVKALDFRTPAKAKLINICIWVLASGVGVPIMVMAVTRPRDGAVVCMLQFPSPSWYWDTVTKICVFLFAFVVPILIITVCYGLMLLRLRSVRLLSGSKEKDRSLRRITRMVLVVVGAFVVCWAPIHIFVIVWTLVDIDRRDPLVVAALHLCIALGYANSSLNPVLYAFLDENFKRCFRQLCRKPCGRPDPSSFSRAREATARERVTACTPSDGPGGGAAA

COc1cc2ccnc3c2c(c1OC)NC=C3 [aaptamine]
Emax (ADRB2; [2]): 96.5% | IC50 (ADRB2; dose-response, antagonist mode): 0.2 µM | selectivity for ADRB2 over ADRA2C (ADRB2; from IC50 values): > 50 fold | Emax (DRD4; [2]): 94.5% | IC50 (DRD4; dose-response, antagonist mode): 6.9 µM | selectivity for DRD4 among the dopamine receptors (DRD4; versus DRD2S and DRD2L, from IC50 values): 3.7- to 5.6 fold | Emax (CCR1; dose-response analysis, read-out: Dose-Response Maximal Response, % Activation): 50.2% | EC50 (CCR1; dose-response, agonist mode): 11.8 µM | Emax (CCR3; [3]): 33% | EC50 (CCR3; [4]): 16.2 µM | Emax (CXCR3; [3]): 74.6% | EC50 (CXCR3; [4]): 31.8 µM | agonistic activity in the β-arrestin assay [1]: did not demonstrate significant agonistic activity | IC50 (proteasome): 19 µM | effective concentration, α-adrenoreceptor antagonism (α-adrenoreceptor): 30 µM

From PMC8466755, “GPCR Pharmacological Profiling of Aaptamine from the Philippine Sponge Stylissa sp. Extends Its Therapeutic Potential for Noncommunicable Diseases” (Molecules, 2021)
